Assay results as given in patent publication US20030207930A1 (priority 2000, published 2003).
Where two headings read alike, the source gives them in different places.

How the values were obtained:
[1] = intrinsic dissolving rates; type: physicochemical; conditions: pH 1, pH 4.5 and pH 6.8; compared with valsartan
[2] = dissolving profile of film-coated tablet; type: physicochemical; conditions: within 15 minutes
Experimental: In addition, an improved dissolving profile in a tablet can be assured. In studies of the dissolving profile, it was established that the calcium salt, especially the tetrahydrate thereof, is released by 100% from a film-coated tablet within 15 minutes.
In addition, an improved dissolving profile in a tablet can be assured. In studies of the dissolving profile, it was established that the magnesium salt, especially the hexahydrate thereof, is released by 100% from a film-coated tablet within 15 minutes.

[3] = N2 atmosphere, heating rate 10 K/min
[4] = 25° C., 4 hours
[5] = open container and sealed ampoule
[6] = hygroscopicity of the material obtained; type: physicochemical; conditions: material as obtained
[7] = step 1, relative humidity 40% (cycle 40-90)
[8] = step 2, relative humidity 50% (cycle 40-90)
[9] = step 3, relative humidity 60% (cycle 40-90)
[10] = step 4, relative humidity 70% (cycle 40-90)
[11] = step 5, relative humidity 80% (cycle 40-90)
[12] = step 6, relative humidity 90% (cycle 40-90)
[13] = step 7, relative humidity 80% (first cycle 90-0)
[14] = step 8, relative humidity 70% (first cycle 90-0)
[15] = step 9, relative humidity 60% (first cycle 90-0)
[16] = step 10, relative humidity 50% (first cycle 90-0)
[17] = step 11, relative humidity 40% (first cycle 90-0)
[18] = step 12, relative humidity 30% (first cycle 90-0)
[19] = step 13, relative humidity 20% (first cycle 90-0)
[20] = step 14, relative humidity 10% (first cycle 90-0)
[21] = step 15, relative humidity 0% (first cycle 90-0)
[22] = step 16, relative humidity 10% (cycle 0-90)
[23] = step 17, relative humidity 20% (cycle 0-90)
[24] = step 18, relative humidity 30% (cycle 0-90)
[25] = step 19, relative humidity 40% (cycle 0-90)
[26] = step 20, relative humidity 50% (cycle 0-90)
[27] = step 21, relative humidity 60% (cycle 0-90)
[28] = step 22, relative humidity 70% (cycle 0-90)
[29] = step 23, relative humidity 80% (cycle 0-90)
[30] = step 24, relative humidity 90% (cycle 0-90)
[31] = step 25, relative humidity 0% (second cycle 90-0)
[32] = step 26, relative humidity (starting value)

## CCCCC(=O)N(Cc1ccc(-c2ccccc2-c2nn[n-]n2)cc1)C(C(=O)[O-])C(C)C.[Ca+2] (centres unmarked) [calcium salt of valsartan]
[1]
  intrinsic dissolving rates: improved values over those of valsartan
[2]
  release from a film-coated tablet: 100%

## CCCCC(=O)N(Cc1ccc(-c2ccccc2-c2nn[n-]n2)cc1)C(C(=O)[O-])C(C)C.[K+].[K+] (centres unmarked) [di-potassium salt of valsartan]
[1]
  intrinsic dissolving rates: improved values over those of valsartan

## CCCCC(=O)N(Cc1ccc(-c2ccccc2-c2nnn[nH]2)cc1)[C@H](C(=O)[O-])C(C)C.CCCCC(=O)N(Cc1ccc(-c2ccccc2-c2nnn[nH]2)cc1)[C@H](C(=O)[O-])C(C)C.O.O.O.O.O.O.[Mg+2] [hexahydrate of the magnesium salt of (S)-N-(1-carboxy-2-methylprop-1-yl)-N-pentanoyl-N-[2′-(1H-tetrazol-5-yl)biphenyl-4-ylmethyl]-amine]
[3]; 25° C.
  weight loss or water loss in %: 0%
[3]; 50° C.
  weight loss or water loss in %: 1.2%
[3]; 75° C.
  weight loss or water loss in %: 4.2%
[3]; 100° C.
  weight loss or water loss in %: 11.0%
[3]; 125° C.
  weight loss or water loss in %: 16.7%
[3]; 150° C.
  weight loss or water loss in %: 17.7%
[3]; 175° C.
  weight loss or water loss in %: 18.3%
[3]; 200° C.
  weight loss or water loss in %: 18.5%
[3]; 225° C.
  weight loss or water loss in %: 18.7%
[3]; 250° C.
  weight loss or water loss in %: 18.9%
[3]; 275° C.
  weight loss or water loss in %: 19.3%
[4]; range of 20 to 80% relative humidity, measurement error about 0.1%
  water absorption or water loss (overall finding): weak, reproducible water absorption or water loss
[4]; [7]
  water absorption or loss in %: 0.06%
[4]; [8]
  water absorption or loss in %: 0.14%
[4]; [9]
  water absorption or loss in %: 0.19%
[4]; [10]
  water absorption or loss in %: 0.25%
[4]; [11]
  water absorption or loss in %: 0.41%
[4]; [12]
  water absorption or loss in %: 0.58%
[4]; [13]
  water absorption or loss in %: 0.32%
[4]; [14]
  water absorption or loss in %: 0.22%
[4]; [15]
  water absorption or loss in %: 0.14%
[4]; [16]
  water absorption or loss in %: 0.08%
[4]; [17]
  water absorption or loss in %: 0.16%
[4]; [18]
  water absorption or loss in %: −0.03%
[4]; [19]
  water absorption or loss in %: −0.07%
[4]; [20]
  water absorption or loss in %: −0.12%
[4]; [21]
  water absorption or loss in %: −4.3%
[4]; [22]
  water absorption or loss in %: −0.79%
[4]; [23]
  water absorption or loss in %: −0.14%
[4]; [24]
  water absorption or loss in %: −0.05%
[4]; [25]
  water absorption or loss in %: 0.02%
[4]; [26]
  water absorption or loss in %: 0.09%
[4]; [27]
  water absorption or loss in %: 0.14%
[4]; [28]
  water absorption or loss in %: 0.20%
[4]; [29]
  water absorption or loss in %: 0.28%
[4]; [30]
  water absorption or loss in %: 0.51%
[4]; [31]
  water absorption or loss in %: −3.68%
[4]; [32]
  water absorption or loss in %: −0.01%
[5]
  water content in stability test: remains constant

## (S)-N-(1-carboxy-2-methyl-prop-1-yl)-N-pentanoyl-N-[2′-(1H-tetrazol-5-yl)-biphenyl-4-ylmethyl]-amine calcium salt tetrahydrate
[3]; 25° C.
  weight loss or water loss in %: 0%
[3]; 50° C.
  weight loss or water loss in %: 0%
[3]; 75° C.
  weight loss or water loss in %: 0.5%
[3]; 100° C.
  weight loss or water loss in %: 3.5%
[3]; 125° C.
  weight loss or water loss in %: 10.2%
[3]; 150° C.
  weight loss or water loss in %: 12.4%
[3]; 175° C.
  weight loss or water loss in %: 12.8%
[3]; 200° C.
  weight loss or water loss in %: 12.9%
[3]; 225° C.
  weight loss or water loss in %: 12.9%
[3]; 250° C.
  weight loss or water loss in %: 13.0%
[3]; 275° C.
  weight loss or water loss in %: 13.2%
[4]; 0 to 90% relative humidity, measurement error about 0.1%
  water absorption or loss (overall finding): no measurable water absorption or loss
[4]; [7]
  water absorption or loss in %: 0.04%
[4]; [8]
  water absorption or loss in %: 0.04%
[4]; [9]
  water absorption or loss in %: 0.03%
[4]; [10]
  water absorption or loss in %: 0.02%
[4]; [11]
  water absorption or loss in %: 0.02%
[4]; [12]
  water absorption or loss in %: 0.00%
[4]; [13]
  water absorption or loss in %: 0.02%
[4]; [14]
  water absorption or loss in %: 0.02%
[4]; [15]
  water absorption or loss in %: 0.02%
[4]; [16]
  water absorption or loss in %: 0.02%
[4]; [17]
  water absorption or loss in %: 0.02%
[4]; [18]
  water absorption or loss in %: 0.01%
[4]; [19]
  water absorption or loss in %: 0.01%
[4]; [20]
  water absorption or loss in %: 0.00%
[4]; [21]
  water absorption or loss in %: −0.01%
[4]; [22]
  water absorption or loss in %: 0.00%
[4]; [23]
  water absorption or loss in %: 0.00%
[4]; [24]
  water absorption or loss in %: 0.00%
[4]; [25]
  water absorption or loss in %: 0.00%
[4]; [26]
  water absorption or loss in %: 0.00%
[4]; [27]
  water absorption or loss in %: 0.01%
[4]; [28]
  water absorption or loss in %: 0.00%
[4]; [29]
  water absorption or loss in %: −0.01%
[4]; [30]
  water absorption or loss in %: −0.02%
[4]; [31]
  water absorption or loss in %: −0.02%
[4]; [32]
  water absorption or loss in %: 0.00%
[5]
  water content in stability test: remains constant

## (S)-N-(1-carboxy-2-methyl-prop-1-yl)-N-pentanoyl-N-[2′-(1H-tetrazol-5-yl)-biphenyl-4-ylmethyl]-amine dipotassium salt [Example 4]
[6]
  hygroscopicity: hygroscopic

## (S)-N-(1-carboxy-2-methyl-prop-1-yl)-N-pentanoyl-N-[2′-(1H-tetrazol-5-yl)-biphenyl-4-ylmethyl]-amine disodium salt [Example 5]
[6]
  hygroscopicity: hygroscopic

## Bis-dibutylammonium Salt of Valsartan [Example 16]
[6]
  hygroscopicity: slightly hygroscopic

## Hydrate of Valsartan Disodium Salt (2.4 ±1.0 Mole H2O) [Example 11]
[6]
  hygroscopicity: slightly hygroscopic

## Hydrate of the Valsartan Dipotassium Salt (3.4±1.0 mole H2O) [Example 12]
[6]
  hygroscopicity: slightly hygroscopic
